Measurements: publication PMC5515969, “Effects of 31 FDA approved small-molecule kinase inhibitors on isolated rat liver mitochondria” (Archives of Toxicology, 2016)

Columns and labels:
[1] = tested on: isolated rat liver mitochondria; assay: Mitochondrial oxygen consumption (glutamate/malate or succinate driven, state 4 and state 3); assay type: biochemical; conditions: DMSO treated samples set as 1; for State 3 respiration driven by succinate at 10XCmax: key: 0 indicates that the drug had no effects (negative); for State 3 respiration driven by succinate at 1XCmax: key: 0 indicates that the drug had no effects (negative)
In short: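 Rat liver mitochondria (1 mg/ml protein) exposed 5 min to kinase inhibitors in 0.1% DMSO, then O2 consumption measured by Clark-type electrode with glutamate/malate or succinate (state 4), ADP added after 3 min (state 3). Rates normalized to 0.1% DMSO controls set to 1.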

RCC I = RCC I activity in submitochondrial particles; assay type: biochemical, rat; design: key to RCC I at 10XCmax / RCC I at 100XCmax / RCC I at 50XCmax / RCC I at 30XCmax / RCC I at 20XCmax: activity relative to DMSO-treated controls (control set as 1 = 100%); conditions: 10XCmax; DMSO treated samples set as 1
In short: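 Activity relative to DMSO (set as 1) after 15-min exposure of submitochondrial particles (1 mg/ml) to compound. RCC I is defined as rotenone-sensitive activity and RCC II is followed at 600 nm over 6 min.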

RCC II = target: T1, RCC II (Rattus norvegicus, UniProt P21913+Q641Z9+Q6PCT8+Q920L2); assay: RCC II activity in submitochondrial particles; assay type: biochemical; design: key: activity relative to DMSO-treated controls (control set as 1 = 100%); conditions: DMSO treated samples set as 1
T1 construct: Submitochondrial particles were prepared by subjecting the intact mitochondria to three successive freeze–thaw cycles; from tissue; host or cells: rat liver mitochondria, used as submitochondrial particles
T1 sequence (Q920L2 35-656): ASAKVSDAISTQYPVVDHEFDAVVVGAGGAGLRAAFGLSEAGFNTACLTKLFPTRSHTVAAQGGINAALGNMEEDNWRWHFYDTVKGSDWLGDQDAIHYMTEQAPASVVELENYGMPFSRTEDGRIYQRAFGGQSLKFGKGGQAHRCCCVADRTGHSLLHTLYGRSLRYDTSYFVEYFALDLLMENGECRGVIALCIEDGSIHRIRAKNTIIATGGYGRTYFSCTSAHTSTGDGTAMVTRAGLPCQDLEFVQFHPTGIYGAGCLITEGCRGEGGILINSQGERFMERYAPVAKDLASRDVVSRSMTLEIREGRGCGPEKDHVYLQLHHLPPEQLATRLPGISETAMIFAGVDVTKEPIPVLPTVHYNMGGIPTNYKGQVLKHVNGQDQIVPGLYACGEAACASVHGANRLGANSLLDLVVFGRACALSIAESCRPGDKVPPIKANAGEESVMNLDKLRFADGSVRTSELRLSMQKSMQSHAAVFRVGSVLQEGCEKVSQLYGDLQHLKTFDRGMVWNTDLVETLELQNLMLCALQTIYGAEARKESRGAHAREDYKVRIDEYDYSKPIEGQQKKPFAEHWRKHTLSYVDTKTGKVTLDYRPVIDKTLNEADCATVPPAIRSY
T1 sequence (P21913 31-282): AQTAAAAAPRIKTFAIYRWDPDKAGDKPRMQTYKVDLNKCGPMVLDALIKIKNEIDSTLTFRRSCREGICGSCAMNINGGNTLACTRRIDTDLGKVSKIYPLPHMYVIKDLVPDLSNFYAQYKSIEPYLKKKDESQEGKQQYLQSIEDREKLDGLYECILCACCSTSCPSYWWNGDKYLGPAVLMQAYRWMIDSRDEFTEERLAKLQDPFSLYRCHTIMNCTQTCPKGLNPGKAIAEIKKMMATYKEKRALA
T1 sequence (Q641Z9 1-169): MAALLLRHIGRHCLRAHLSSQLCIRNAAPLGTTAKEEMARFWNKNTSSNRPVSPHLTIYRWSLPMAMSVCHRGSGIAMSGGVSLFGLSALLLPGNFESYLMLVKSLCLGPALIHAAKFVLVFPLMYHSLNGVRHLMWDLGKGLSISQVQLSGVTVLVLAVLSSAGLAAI
T1 sequence (Q6PCT8 57-159): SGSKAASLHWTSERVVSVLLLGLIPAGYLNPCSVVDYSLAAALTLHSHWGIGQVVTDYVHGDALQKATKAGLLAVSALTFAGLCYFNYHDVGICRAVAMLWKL
In short: (§1)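 First, submitochondrial particles (1 mg/ml) are incubated with inhibitor for 15 min. Next, complex activities are followed spectrophotometrically, with RCC I taken as the difference between buffers lacking and containing rotenone. Finally, activities are expressed relative to DMSO controls set at 1.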

RCC III = RCC III activity in submitochondrial particles; assay type: biochemical, rat; design: key to RCC III at 100XCmax: activity relative to DMSO-treated controls (control set as 1 = 100%); conditions: 100XCmax
In short: as §1

RCC IV = RCC IV activity in submitochondrial particles; assay type: biochemical, rat; design: key to RCC IV at 50XCmax / RCC IV at 100XCmax: activity relative to DMSO-treated controls (control set as 1 = 100%); conditions: 50XCmax; DMSO treated samples set as 1; in %
In short: as §1

RCC V = RCC V activity in submitochondrial particles; assay type: biochemical, rat; conditions: DMSO treated samples set as 1; for RCC V at 5XCmax: key: 0 indicates that the drug had no effects (negative)
In short: as §1

[2] = tested on: isolated rat liver mitochondria; assay: Mitochondrial inner membrane potential (MMP), Rhodamine 123; assay type: biochemical; conditions: difference in signal between KI and DMSO treated samples at the end of experiments
Description: Fig. 3 KI effects on mitochondrial inner membrane potential (MMP). […] In a, c, data are means and standard derivations from three separate experiments. *p < 0.05 as compared to DMSO-treated samples at the end of experiments. In b, data are means of two independent experiments

[3] = tested on: isolated rat liver mitochondria; assay: Mitochondrial swelling (absorbance at 535 nm); assay type: biochemical; conditions: difference in signal between KI and DMSO treated samples at the end of experiments; for Swelling 5XCmax: key: 0 indicates that the drug had no effects (negative)
[4] = Solubility of DMSO stock for 100X/50X Cmax testing; assay type: physicochemical
Description: Supplement 204_2016_1918_MOESM3_ESM.xlsx, sheet "Sheet1" | column: 100 Cmax; 50 Cmax; note

[5] = tested on: isolated rat liver mitochondria; conditions: positive control alamethicin treated samples
[6] = human, in vivo; cited from earlier work
[7] = in vivo; cited from earlier work
[8] = tested on: isolated rat liver mitochondria; assay: Mitochondrial ROS production (CM-H2DCFDA); conditions: DMSO treated samples set as 1

C=CC(=O)Nc1cc(Nc2nccc(-c3cn(C)c4ccccc34)n2)c(OC)cc1N(C)CCN(C)C.CS(=O)(=O)O [osimertinib mesylate]
State 3 respiration driven by succinate at 1XCmax ([1]; 1XCmax): 0 | State 4 respiration driven by succinate at 1XCmax ([1]; 1XCmax): 0 | State 3 respiration driven by succinate at 2.5XCmax ([1]; 2.5XCmax): 0 | State 4 respiration driven by succinate at 2.5XCmax ([1]; 2.5XCmax): 0 | State 3 respiration driven by succinate at 5XCmax ([1]; 5XCmax): 0 | State 4 respiration driven by succinate at 5XCmax ([1]; 5XCmax): 0 | State 3 respiration driven by succinate at 10XCmax ([1]; 10XCmax): 0 | State 4 respiration driven by succinate at 10XCmax ([1]; 10XCmax): 0 | State 3 respiration driven by succinate at 20XCmax ([1]; 20XCmax): 0 | State 4 respiration driven by succinate at 20XCmax ([1]; 20XCmax): 0 | State 3 respiration driven by succinate at 30XCmax ([1]; 30XCmax): 0 | State 4 respiration driven by succinate at 30XCmax ([1]; 30XCmax): 0 | State 3 respiration driven by succinate at 50XCmax ([1]; 50XCmax): 0 | State 4 respiration driven by succinate at 50XCmax ([1]; 50XCmax): 0 | State 3 respiration driven by succinate at 100XCmax ([1]; 100XCmax): 0 | State 4 respiration driven by succinate at 100XCmax ([1]; 100XCmax): 0 | RCC I at 10XCmax (RCC I): 0 | RCC II at 1.0XCmax (RCC II; 1.0XCmax): 0 | RCC II at 2.5XCmax (RCC II; 2.5XCmax): 0 | RCC II at 5XCmax (RCC II; 5XCmax): 0 | RCC II at 10XCmax (RCC II; 10XCmax): 0 | RCC II at 20XCmax (RCC II; 20XCmax): 0 | RCC II at 30XCmax (RCC II; 30XCmax): 0 | RCC II at 50XCmax (RCC II; 50XCmax): 0 | RCC II at 100XCmax (RCC II; 100XCmax): 0 | RCC III at 100XCmax (RCC III): 0 | RCC IV at 50XCmax (RCC IV): 0 | RCC V at 5XCmax (RCC V; 5XCmax): 0 | RCC V at 50XCmax (RCC V; 50XCmax): 0 | MMP measured by Rhodamine 123 at 1XCmax ([2]; 1XCmax): 0 | MMP measured by Rhodamine 123 at 2.5XCmax ([2]; 2.5XCmax): 0 | MMP measured by Rhodamine 123 at 5XCmax ([2]; 5XCmax): 0 | MMP measured by Rhodamine 123 at 10XCmax ([2]; 10XCmax): 0 | MMP measured by Rhodamine 123 at 20XCmax ([2]; 20XCmax): 0 | MMP measured by Rhodamine 123 at 30XCmax ([2]; 30XCmax): 0 | MMP measured by Rhodamine 123 at 50XCmax ([2]; 50XCmax): 0 | MMP measured by Rhodamine 123 at 100XCmax ([2]; 100XCmax): 0 | Swelling 1XCmax ([3]; 1XCmax): 0 | Swelling 2.5XCmax ([3]; 2.5XCmax): 0 | Swelling 5XCmax ([3]; 5XCmax): 0 | Swelling 10XCmax ([3]; 10XCmax): 0 | Swelling 20XCmax ([3]; 20XCmax): 0 | Swelling 30XCmax ([3]; 30XCmax): 0 | Swelling 50XCmax ([3]; 50XCmax): 0 | Swelling 100XCmax ([3]; 100XCmax): 0 | note (DMSO stock) [4]: 50 mM will precipitate | Cytochrome c release 1XCmax ([5]; 1XCmax): 0 | Cytochrome c release 2.5XCmax ([5]; 2.5XCmax): 0 | Cytochrome c release 5XCmax ([5]; 5XCmax): 0 | Cytochrome c release 10XCmax ([5]; 10XCmax): 0 | Cytochrome c release 20XCmax ([5]; 20XCmax): 0 | Cytochrome c release 30XCmax ([5]; 30XCmax): 0 | Cytochrome c release 50XCmax ([5]; 50XCmax): 0 | Cytochrome c release 100XCmax ([5]; 100XCmax): 6.58±0.09 percentage of the positive control group | Cmax [6]: 500 nM | Labeling for cardiotoxicity [7]: W&P: QTc Interval Prolongation; Cardiomyopathy | Potential for cardiotoxicity (based on labeling) [7]: 1 | ROS measured by CM-H2DCFDA at 1XCmax ([8]; 1XCmax): 0 | ROS measured by CM-H2DCFDA at 2.5XCmax ([8]; 2.5XCmax): 0 | ROS measured by CM-H2DCFDA at 5XCmax ([8]; 5XCmax): 0 | ROS measured by CM-H2DCFDA at 10XCmax ([8]; 10XCmax): 0 | ROS measured by CM-H2DCFDA at 20XCmax ([8]; 20XCmax): 0 | ROS measured by CM-H2DCFDA at 30XCmax ([8]; 30XCmax): 1.38±0.13 | ROS measured by CM-H2DCFDA at 50XCmax ([8]; 50XCmax): 1.80±0.32 | ROS measured by CM-H2DCFDA at 100XCmax ([8]; 100XCmax): 3.35±0.28
